Reference: ChEMBL document CHEMBL2040817, “Fragment-based discovery of hydroxy-indazole-carboxamides as novel small molecule inhibitors of Hsp90” (Bioorg Med Chem Lett, 2012)

biological target: T1, Heat shock protein HSP 90-beta (Homo sapiens, UniProt P08238); assay: Displacement of [3H]17AAG from human recombinant Hsp90 after 30 mins by beta scintillation counting; conditions: not given
T1 sequence (P08238 whole entry): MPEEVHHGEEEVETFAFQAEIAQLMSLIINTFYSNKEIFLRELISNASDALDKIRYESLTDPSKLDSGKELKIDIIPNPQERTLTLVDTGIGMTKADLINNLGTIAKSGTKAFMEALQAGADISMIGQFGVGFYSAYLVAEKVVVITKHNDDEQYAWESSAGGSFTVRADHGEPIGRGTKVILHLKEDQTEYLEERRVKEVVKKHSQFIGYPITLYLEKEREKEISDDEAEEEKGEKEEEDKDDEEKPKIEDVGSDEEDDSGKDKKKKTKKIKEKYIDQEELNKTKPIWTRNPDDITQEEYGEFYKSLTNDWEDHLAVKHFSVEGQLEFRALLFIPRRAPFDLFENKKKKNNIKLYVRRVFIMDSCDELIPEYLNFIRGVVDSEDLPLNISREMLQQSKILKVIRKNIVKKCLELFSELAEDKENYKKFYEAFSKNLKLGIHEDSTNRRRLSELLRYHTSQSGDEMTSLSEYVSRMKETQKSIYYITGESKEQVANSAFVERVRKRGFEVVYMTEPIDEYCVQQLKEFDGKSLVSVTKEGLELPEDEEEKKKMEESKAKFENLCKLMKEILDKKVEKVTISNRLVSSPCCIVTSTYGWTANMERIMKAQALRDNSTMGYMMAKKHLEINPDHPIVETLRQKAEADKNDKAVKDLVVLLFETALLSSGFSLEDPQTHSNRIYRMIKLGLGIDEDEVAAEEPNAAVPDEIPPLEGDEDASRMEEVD

SMILES	IC50 [µM]
Cc1cccc(Cc2n[nH]c3cc(O)c(C(=O)N(C)Cc4ccc(CNS(C)(=O)=O)cc4)cc23)c1	0.15
CCCN(C)C(=O)c1cc2c(Cc3ccccc3)n[nH]c2cc1O	1.9
CN(Cc1cccc(Cl)c1)C(=O)c1cc2c(Cc3ccccc3)n[nH]c2cc1O	1.5
COc1cccc(CN(C)C(=O)c2cc3c(Cc4ccccc4)n[nH]c3cc2O)c1	0.98
CN(Cc1ccccc1Cl)C(=O)c1cc2c(Cc3ccccc3)n[nH]c2cc1O	1.1
COc1ccccc1CN(C)C(=O)c1cc2c(Cc3ccccc3)n[nH]c2cc1O	1.7
CN(Cc1ccc(CNS(C)(=O)=O)cc1)C(=O)c1cc2c(Cc3cccc(Cl)c3)n[nH]c2cc1O	0.06
CN(Cc1cccc(F)c1)C(=O)c1cc2c(Cc3cccc(Cl)c3)n[nH]c2cc1O	0.71
Cc1cccc(Cc2n[nH]c3cc(O)c(C(=O)N(C)Cc4ccc(F)cc4)cc23)c1	0.58
CN(Cc1cccc(Br)c1)C(=O)c1cc2c(Cc3ccccc3)n[nH]c2cc1O	1.3
CN(Cc1ccc(Br)cc1)C(=O)c1cc2c(Cc3ccccc3)n[nH]c2cc1O	1.1
Oc1ccc2c(C3CCCC3)n[nH]c2c1	87
NC(=O)c1cc2c(Cc3ccccc3)n[nH]c2cc1O	61
Cc1ccccc1CN(C)C(=O)c1cc2c(Cc3ccccc3)n[nH]c2cc1O	0.74
Cc1ccc(CN(C)C(=O)c2cc3c(Cc4ccccc4)n[nH]c3cc2O)cc1	0.63
CN(Cc1ccccc1Br)C(=O)c1cc2c(Cc3cccc(Cl)c3)n[nH]c2cc1O	0.59
CCOc1ccc(CN(C)C(=O)c2cc3c(Cc4ccccc4)n[nH]c3cc2O)cc1	0.76
COc1cc(CN(C)C(=O)c2cc3c(Cc4ccccc4)n[nH]c3cc2O)ccc1Cl	2.3
CN(Cc1ccc(F)cc1)C(=O)c1cc2c(Cc3cccc(Cl)c3)n[nH]c2cc1O	0.8
COc1cc2[nH]nc(Cc3cccc(C)c3)c2cc1C(=O)N(C)Cc1ccccc1	> 20

SMILES	IC50 [µM]
Cc1cccc(CN(C)C(=O)c2cc3c(Cc4ccccc4)n[nH]c3cc2O)c1	3.6
CN(Cc1ccccc1)C(=O)c1cc2c(CCc3ccccc3)n[nH]c2cc1O	0.23
COc1cccc(CN(C)C(=O)c2cc3c(Cc4ccccc4)n[nH]c3cc2O)c1OC	0.47
CN(Cc1ccccc1Br)C(=O)c1cc2c(Cc3ccccc3)n[nH]c2cc1O	0.61
COc1cccc(Cc2n[nH]c3cc(O)c(C(=O)N(C)Cc4ccccc4)cc23)c1	1.4
CN(Cc1cccc(F)c1)C(=O)c1cc2c(Cc3ccccc3)n[nH]c2cc1O	0.57
Cc1cccc(Cc2n[nH]c3cc(O)c(C(=O)N(C)Cc4cccc(NS(C)(=O)=O)c4)cc23)c1	0.2
Cc1ccccc1Cc1n[nH]c2cc(O)c(C(=O)N(C)Cc3ccccc3)cc12	2.4
CN(Cc1cccc(NS(C)(=O)=O)c1)C(=O)c1cc2c(Cc3cccc(Cl)c3)n[nH]c2cc1O	0.41
CN(Cc1ccccc1)C(=O)c1cc2c(Cc3ccccc3)n[nH]c2cc1O	0.66
CN(Cc1ccccc1)C(=O)c1cc2c(Cc3ccc(Cl)cc3)n[nH]c2cc1O	5.7
COc1ccc(CN(C)C(=O)c2cc3c(Cc4cccc(Cl)c4)n[nH]c3cc2O)cc1OC	0.73
Cc1ccc(Cc2n[nH]c3cc(O)c(C(=O)N(C)Cc4ccccc4)cc23)cc1	1.3
CN(Cc1ccccc1F)C(=O)c1cc2c(Cc3ccccc3)n[nH]c2cc1O	0.9
CCCCN(C)C(=O)c1cc2c(Cc3ccccc3)n[nH]c2cc1O	1.8
COc1ccc(CN(C)C(=O)c2cc3c(Cc4cccc(C)c4)n[nH]c3cc2O)cc1	0.46
COc1ccc(CN(C)C(=O)c2cc3c(Cc4cccc(Cl)c4)n[nH]c3cc2O)cc1	0.8
CN(Cc1ccc(F)cc1)C(=O)c1cc2c(Cc3ccccc3)n[nH]c2cc1O	1.1
COCCN(C)C(=O)c1cc2c(Cc3ccccc3)n[nH]c2cc1O	4
CN(Cc1cccc(C(F)(F)F)c1)C(=O)c1cc2c(Cc3ccccc3)n[nH]c2cc1O	3.4

SMILES	IC50 [µM]
CCc1ccc(Cc2n[nH]c3cc(O)c(C(=O)N(C)Cc4ccccc4)cc23)cc1	2.5
CN(C(=O)c1cc2c(Cc3ccccc3)n[nH]c2cc1O)c1ccco1	0.61
Cc1cccc(Cc2n[nH]c3cc(O)c(C(=O)N(C)Cc4ccccc4Br)cc23)c1	0.78
CN(Cc1ccc(Cl)c(F)c1)C(=O)c1cc2c(Cc3ccccc3)n[nH]c2cc1O	0.98
CCN(Cc1ccccc1)C(=O)c1cc2c(Cc3cccc(C)c3)n[nH]c2cc1O	3
Cc1cccc(Cc2n[nH]c3cc(O)c(C(=O)N(C)Cc4ccc(Cl)c(F)c4)cc23)c1	0.17
Cc1cccc(Cc2n[nH]c3cc(O)c(C(=O)NCc4ccccc4)cc23)c1	1.5
CN(Cc1ccccc1)C(=O)c1cc2c(Cc3cccc(F)c3)n[nH]c2cc1O	1.3
Cc1cccc(Cc2n[nH]c3cc(O)c(C(=O)N(C)Cc4ccc(F)c(F)c4)cc23)c1	0.5
Cc1ccc(-c2nc(N)nc3ccc(Cl)cc23)cc1	0.9
CN(Cc1ccccc1)C(=O)c1cc2c(Cc3ccccc3Cl)n[nH]c2cc1O	2.6
CN(Cc1ccc(Cl)cc1)C(=O)c1cc2c(Cc3ccccc3)n[nH]c2cc1O	0.33
COc1ccc(CN(C)C(=O)c2cc3c(Cc4cccc(C)c4)n[nH]c3cc2O)cc1OC	0.58
COc1cc(CN(C)C(=O)c2cc3c(Cc4cccc(C)c4)n[nH]c3cc2O)ccc1Cl	0.68
Nc1nc(Cl)cc(Cc2ccc(Cl)cc2)n1	21
CN(Cc1ccccc1)C(=O)c1cc2c(Cc3cccc(Cl)c3)n[nH]c2cc1O	0.4
Cc1cccc(Cc2n[nH]c3cc(O)c(C(=O)N(C)Cc4cccc(F)c4)cc23)c1	0.37
Cc1cccc(Cc2n[nH]c3cc(O)c(C(=O)N(C)Cc4ccc(NS(C)(=O)=O)cc4)cc23)c1	0.35
CCc1ccc(CN(C)C(=O)c2cc3c(Cc4ccccc4)n[nH]c3cc2O)cc1	0.39
CCc1cccc(Cc2n[nH]c3cc(O)c(C(=O)N(C)Cc4ccccc4)cc23)c1	1.3

tested on: A2780; assay: Antiproliferative activity against human A2780 cells after 72 hrs by alamar blue assay; assay type: functional, cell-based; conditions: A2780, 72 h

SMILES	IC50 [µM]
Cc1cccc(Cc2n[nH]c3cc(O)c(C(=O)N(C)Cc4ccc(CNS(C)(=O)=O)cc4)cc23)c1	0.71
CCCN(C)C(=O)c1cc2c(Cc3ccccc3)n[nH]c2cc1O	> 10
CN(Cc1cccc(Cl)c1)C(=O)c1cc2c(Cc3ccccc3)n[nH]c2cc1O	5.3
COc1cccc(CN(C)C(=O)c2cc3c(Cc4ccccc4)n[nH]c3cc2O)c1	3.8
CN(Cc1ccccc1Cl)C(=O)c1cc2c(Cc3ccccc3)n[nH]c2cc1O	1.1
COc1ccccc1CN(C)C(=O)c1cc2c(Cc3ccccc3)n[nH]c2cc1O	5.4
CN(Cc1ccc(CNS(C)(=O)=O)cc1)C(=O)c1cc2c(Cc3cccc(Cl)c3)n[nH]c2cc1O	0.57
CN(Cc1cccc(F)c1)C(=O)c1cc2c(Cc3cccc(Cl)c3)n[nH]c2cc1O	0.44
Cc1cccc(Cc2n[nH]c3cc(O)c(C(=O)N(C)Cc4ccc(F)cc4)cc23)c1	0.59
CN(Cc1cccc(Br)c1)C(=O)c1cc2c(Cc3ccccc3)n[nH]c2cc1O	7.1
Cc1cccc(Cc2n[nH]c3cc(O)c(C(=O)N(C)Cc4ccccc4)cc23)c1	0.49
CN(Cc1ccc(Br)cc1)C(=O)c1cc2c(Cc3ccccc3)n[nH]c2cc1O	2.8
Cc1ccccc1CN(C)C(=O)c1cc2c(Cc3ccccc3)n[nH]c2cc1O	4.4
Cc1ccc(CN(C)C(=O)c2cc3c(Cc4ccccc4)n[nH]c3cc2O)cc1	6.9
CN(Cc1ccccc1Br)C(=O)c1cc2c(Cc3cccc(Cl)c3)n[nH]c2cc1O	0.13
CCOc1ccc(CN(C)C(=O)c2cc3c(Cc4ccccc4)n[nH]c3cc2O)cc1	3.2
COc1cc(CN(C)C(=O)c2cc3c(Cc4ccccc4)n[nH]c3cc2O)ccc1Cl	4.1
CN(Cc1ccc(F)cc1)C(=O)c1cc2c(Cc3cccc(Cl)c3)n[nH]c2cc1O	0.41
CN(Cc1ccccc1)C(=O)c1cc2c(CCc3ccccc3)n[nH]c2cc1O	4.6
COc1cccc(CN(C)C(=O)c2cc3c(Cc4ccccc4)n[nH]c3cc2O)c1OC	4.8
CN(Cc1ccccc1Br)C(=O)c1cc2c(Cc3ccccc3)n[nH]c2cc1O	1.2
CN(Cc1cccc(F)c1)C(=O)c1cc2c(Cc3ccccc3)n[nH]c2cc1O	5
Cc1cccc(Cc2n[nH]c3cc(O)c(C(=O)N(C)Cc4cccc(NS(C)(=O)=O)c4)cc23)c1	4
CN(Cc1cccc(NS(C)(=O)=O)c1)C(=O)c1cc2c(Cc3cccc(Cl)c3)n[nH]c2cc1O	3.2

SMILES	IC50 [µM]
CN(Cc1ccccc1)C(=O)c1cc2c(Cc3ccccc3)n[nH]c2cc1O	0.98
COc1ccc(CN(C)C(=O)c2cc3c(Cc4cccc(Cl)c4)n[nH]c3cc2O)cc1OC	2.4
Cc1ccc(Cc2n[nH]c3cc(O)c(C(=O)N(C)Cc4ccccc4)cc23)cc1	> 10
CN(Cc1ccccc1F)C(=O)c1cc2c(Cc3ccccc3)n[nH]c2cc1O	1.5
CCCCN(C)C(=O)c1cc2c(Cc3ccccc3)n[nH]c2cc1O	7.6
COc1ccc(CN(C)C(=O)c2cc3c(Cc4cccc(C)c4)n[nH]c3cc2O)cc1	0.54
COc1ccc(CN(C)C(=O)c2cc3c(Cc4cccc(Cl)c4)n[nH]c3cc2O)cc1	0.39
CN(Cc1ccc(F)cc1)C(=O)c1cc2c(Cc3ccccc3)n[nH]c2cc1O	4.1
CCc1ccc(Cc2n[nH]c3cc(O)c(C(=O)N(C)Cc4ccccc4)cc23)cc1	> 10
CN(C(=O)c1cc2c(Cc3ccccc3)n[nH]c2cc1O)c1ccco1	2.5
Cc1cccc(Cc2n[nH]c3cc(O)c(C(=O)N(C)Cc4ccccc4Br)cc23)c1	0.31
CN(Cc1ccc(Cl)c(F)c1)C(=O)c1cc2c(Cc3ccccc3)n[nH]c2cc1O	> 10
Cc1cccc(Cc2n[nH]c3cc(O)c(C(=O)N(C)Cc4ccc(Cl)c(F)c4)cc23)c1	0.93
Cc1cccc(Cc2n[nH]c3cc(O)c(C(=O)NCc4ccccc4)cc23)c1	> 10
CN(Cc1ccccc1)C(=O)c1cc2c(Cc3cccc(F)c3)n[nH]c2cc1O	1.7
Cc1cccc(Cc2n[nH]c3cc(O)c(C(=O)N(C)Cc4ccc(F)c(F)c4)cc23)c1	0.53
CN(Cc1ccc(Cl)cc1)C(=O)c1cc2c(Cc3ccccc3)n[nH]c2cc1O	2.6
COc1ccc(CN(C)C(=O)c2cc3c(Cc4cccc(C)c4)n[nH]c3cc2O)cc1OC	3.7
COc1cc(CN(C)C(=O)c2cc3c(Cc4cccc(C)c4)n[nH]c3cc2O)ccc1Cl	1.6
CN(Cc1ccccc1)C(=O)c1cc2c(Cc3cccc(Cl)c3)n[nH]c2cc1O	0.41
Cc1cccc(Cc2n[nH]c3cc(O)c(C(=O)N(C)Cc4cccc(F)c4)cc23)c1	0.44
Cc1cccc(Cc2n[nH]c3cc(O)c(C(=O)N(C)Cc4ccc(NS(C)(=O)=O)cc4)cc23)c1	1.6
CCc1ccc(CN(C)C(=O)c2cc3c(Cc4ccccc4)n[nH]c3cc2O)cc1	9.4

tested on: PC-3; assay: Antiproliferative activity against human PC3 cells after 72 hrs by alamar blue assay; assay type: functional, cell-based; conditions: PC-3, 72 h

SMILES	IC50 [µM]
Cc1cccc(Cc2n[nH]c3cc(O)c(C(=O)N(C)Cc4ccc(CNS(C)(=O)=O)cc4)cc23)c1	> 10
CN(Cc1ccc(CNS(C)(=O)=O)cc1)C(=O)c1cc2c(Cc3cccc(Cl)c3)n[nH]c2cc1O	4.3

tested on: MCF7; assay: Antiproliferative activity against human MCF7 cells after 72 hrs by alamar blue assay; assay type: functional, cell-based; conditions: MCF7, 72 h

SMILES	IC50 [µM]
Cc1cccc(Cc2n[nH]c3cc(O)c(C(=O)N(C)Cc4ccc(CNS(C)(=O)=O)cc4)cc23)c1	4.7
CN(Cc1ccc(CNS(C)(=O)=O)cc1)C(=O)c1cc2c(Cc3cccc(Cl)c3)n[nH]c2cc1O	3.5

tested on: COLO 205; assay: Antiproliferative activity against human COLO205 cells after 72 hrs by alamar blue assay; assay type: functional, cell-based; conditions: COLO 205, 72 h

SMILES	IC50 [µM]
Cc1cccc(Cc2n[nH]c3cc(O)c(C(=O)N(C)Cc4ccc(CNS(C)(=O)=O)cc4)cc23)c1	3.7
CN(Cc1ccc(CNS(C)(=O)=O)cc1)C(=O)c1cc2c(Cc3cccc(Cl)c3)n[nH]c2cc1O	9.5

biological target: T1, Heat shock protein HSP 90-beta; assay: Inhibition of Hsp90 in human A2780 cells assessed as Hsp70 upregulation after 24 hrs by immunostaining method; assay type: cell-based; conditions: not given

SMILES	IC50 [µM]
Cc1cccc(Cc2n[nH]c3cc(O)c(C(=O)N(C)Cc4ccc(CNS(C)(=O)=O)cc4)cc23)c1	1.1
CN(Cc1ccc(CNS(C)(=O)=O)cc1)C(=O)c1cc2c(Cc3cccc(Cl)c3)n[nH]c2cc1O	1
